This assay deals with Obese ZSF1-SU rats. As to the kind of experiment: HFpEF induced PH rat model, obese ZSF1 rats challenged with semaxanib (Example 13). The class given is in vivo. The conditions noted are these: 5 mpk s.c. twice weekly for 8 weeks from day 64 after semaxanib, relative to Obese ZSF1-SU/Veh. How it is done: The effects of an ActRIIA-mFc fusion polypeptide (SEQ ID NO: 56) was examined in a rat model of left ventricular diastolic dysfunction (also referred to as HFpEF) group 2 (subgroup 2.2) pulmonary hypertension (PH). In this model, ZSF1-Lepr^faLepr^cp/Crl rats were challenged with semaxanib (SU5416) to induce HFpEF-PH.
Twenty ZSF1 Lepr^faLepr^cp/Crl male […] (8 wks old) and ten lean rats were subcutaneously administered with a single dose of semaxanib (100 mg/kg) at day 0, and ten lean rats were included as normal control. Eight weeks after semaxanib (SU5416) treatment, twenty ZSF1 Lepr^faLepr^cp/Crl rats were randomized into two groups: i) ten rats were injected subcutaneously with vehicle control (phosphate buffered saline (PBS)), twice weekly for 8 weeks starting from day 64 after semaxanib treatment, “Obese ZSF1 Veh”; and ii) ten rats were injected subcutaneously with ActRIIA-mFc at a dose of 5 mpk twice weekly for 8 weeks starting from day 64 after semaxanib treatment, “Obese ZSF1 ActRIIA-mFc.” At the end of the study, echocardiography and pressure-volume catheter were performed to measure left and right ventricular remodeling and functional changes before animals were euthanized for heart and lung collection.
Prior to euthanization, in vivo cardiac function was assessed by transthoracic echocardiography (Acuson P300, 18 MHz linear transducer: Siemens) in lightly anesthetized rats as described. Echocardiographic assessments were conducted at week 8 (before therapy with ActRIIA-mFc or vehicle) and week 15 (after therapy) in each rat. From left ventricle short axis view, M-mode echocardiogram was acquired to measure interventricular septal thickness at end diastole (IVSd), left ventricular posterior wall thickness at end diastole (LVPWd), left ventricular end diastolic diameter (LVEDD), and left ventricular end systolic diameter (LVESD). Left ventricular mass (LVM) was assessed by the equation: 1.05 [(LVEDD+LVPTD+IVSd)^3-LVEDD^3]. Early diastolic filling peak velocity (E), early diastolic mitral annular velocity (E′), and isovolumetric relaxation time (IVRT) were measured from the medial or septal wall at the mitral valve level from tissue Doppler image. LV diastolic function was assessed by measuring the E/E′ ratio and IVRT. Pulmonary arterial acceleration time (PAAT), a parameter of right ventricular function, was measured. Tricuspid annular plane systolic excursion (TAPSE), a parameter of global right ventricular function, was also measured. RV free wall thickness (RVFWT) was measured using M-mode in a modified parasternal long-axis view through the aortic valve. Pulmonary artery acceleration time (PAAT) was measured as the time from start to peak velocity of blood flow in the lumen of the main pulmonary artery distal to the pulmonary valve as obtained from the pulse-wave doppler recording.
Sixteen weeks after semaxanib treatment, rats were anesthetized with ketamine (100 mg/kg) and xylazine (5 mg/kg) at the end of the experiment to evaluate cardiac and pulmonary hemodynamics. The respiration was supported by a small animal ventilator. Thoracotomy was made through 4-5 intercostal space, and the heart was exposed. […] Ventricular pressure and volume were calculated with LabChart 7 software. […] After finishing left ventricular measurements, the catheter was advanced to the aorta, arterial blood systolic and diastolic pressure was detected. […] Similarly, right atrial pressure was measured by moving the catheter from the right ventricle into atrium. […]

As for “ActRIIA-mFc: ActRIIA-mFc fusion polypeptide (SEQ ID NO: 56); extracellular domain fused to murine IgG2a Fc domain with a linker”, the PAAT entry (FIG. 56) is “significantly increased PAAT”. Also, the “right ventricular systolic pressure (RVSP)” value (FIG. 57) is reported as “significantly reduced right ventricular systolic pressure”. In addition, the RVWT entry (FIG. 58) is listed as “significantly reduced elevated RVWT”. For the same substance, where the note is “FIG. 59”, the TAPSE entry is recorded as “increased TAPSE”. Further, the “Fulton index (RV/(LV+S))” value (FIG. 60) is given as “decreased Fulton index”.

(Values after patent publication US20240181007A1, “COMPOSITIONS AND METHODS FOR TREATING PULMONARY HYPERTENSION” (Acceleron Pharma Inc., priority 2021, published 2024).)
